Measured values: patent publication US20250011296A1, “MODULATORS OF MOLECULAR TARGETS EXPRESSED IN METABOLIC AND INFLAMMATORY DISORDERS” (Ohio State Innovation Foundation, priority 2021, published 2025)

Legend:
[1] = target: T1, PARP-5 (tankyrase-1, TNKS1) (Homo sapiens, UniProt O95271); assay: PARP-5 enzyme assay (TNKS1 Histone Ribosylation Assay kit); assay type: biochemical; conditions: for PARP-5 inhibitory activity / PARP-5% inhibition: 50 μg/mL; for PARP-5% inhibition: Table 20 summary; for inhibition at 50 µg/mL: read-out: PARP-5% inhibition, Table 15, isolates at 50 μg/mL
T1 construct: purchased BPS Bioscience Inc
T1 sequence (O95271 1-1327): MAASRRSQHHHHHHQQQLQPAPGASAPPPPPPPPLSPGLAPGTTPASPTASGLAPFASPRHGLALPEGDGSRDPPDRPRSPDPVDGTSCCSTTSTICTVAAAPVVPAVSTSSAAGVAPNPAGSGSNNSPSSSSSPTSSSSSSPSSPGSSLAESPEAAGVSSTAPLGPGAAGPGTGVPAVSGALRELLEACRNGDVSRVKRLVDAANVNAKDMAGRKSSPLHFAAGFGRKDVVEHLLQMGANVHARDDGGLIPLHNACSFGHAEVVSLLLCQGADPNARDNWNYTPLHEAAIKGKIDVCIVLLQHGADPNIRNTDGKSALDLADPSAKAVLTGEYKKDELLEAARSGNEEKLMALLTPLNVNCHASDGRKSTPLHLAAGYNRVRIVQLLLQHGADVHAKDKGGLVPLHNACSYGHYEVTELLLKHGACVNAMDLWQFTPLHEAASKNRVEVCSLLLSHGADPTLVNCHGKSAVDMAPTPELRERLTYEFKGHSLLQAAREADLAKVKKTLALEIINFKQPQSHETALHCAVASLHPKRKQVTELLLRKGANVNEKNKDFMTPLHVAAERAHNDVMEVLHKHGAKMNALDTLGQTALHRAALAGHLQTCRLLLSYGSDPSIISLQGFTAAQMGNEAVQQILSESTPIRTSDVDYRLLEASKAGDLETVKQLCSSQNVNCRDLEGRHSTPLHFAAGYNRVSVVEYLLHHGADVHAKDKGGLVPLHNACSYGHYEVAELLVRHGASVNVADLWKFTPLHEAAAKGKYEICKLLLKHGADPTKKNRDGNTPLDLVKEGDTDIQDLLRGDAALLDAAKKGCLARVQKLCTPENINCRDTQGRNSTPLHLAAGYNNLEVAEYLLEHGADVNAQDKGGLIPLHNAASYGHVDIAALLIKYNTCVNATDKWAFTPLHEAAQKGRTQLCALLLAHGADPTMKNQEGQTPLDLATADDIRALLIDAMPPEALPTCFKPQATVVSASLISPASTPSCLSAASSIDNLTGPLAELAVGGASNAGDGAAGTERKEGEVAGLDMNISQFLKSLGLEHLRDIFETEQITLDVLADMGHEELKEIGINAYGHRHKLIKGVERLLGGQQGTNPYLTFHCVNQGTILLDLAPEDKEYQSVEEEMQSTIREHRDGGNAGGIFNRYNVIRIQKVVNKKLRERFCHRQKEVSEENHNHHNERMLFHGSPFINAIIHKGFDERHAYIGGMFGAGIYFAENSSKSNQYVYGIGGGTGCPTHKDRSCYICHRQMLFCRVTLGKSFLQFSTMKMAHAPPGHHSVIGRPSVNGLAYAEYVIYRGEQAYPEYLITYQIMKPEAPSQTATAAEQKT
Procedure: Poly (ADP-ribose) polymerase 5 (PARP-5, also known as tankyrase-1 or TNKS1), is a nuclear enzyme involved in repairing single strand DNA breaks. Agonists of PARP-5 induce DNA repair, but the cost of PARP-5 activation is to slow glycolysis and limit GLUT-4-mediated glucose uptake. Small-molecule inhibition of the PARP-5 enzyme potentiates antidiabetic activities by increasing glucose uptake and insulin sensitivity. Extracts and compounds from the arils of M. fragrans were tested by using the TNKS1 Histone Ribosylation Assay kit (BPS Bioscience Inc.) according to the kit protocol. First, microplate wells were coated with immobilized histone substrate (50 μL) overnight at 4° C., then washed 3 times with PBS-Tween (200 μL). The wells were treated with blocking buffer and washed 3 times with PBS-Tween. The reaction mixture, which contained TNKS assay buffer and NAD+, was added to each sample well. Diluted sample solutions were added to the corresponding wells to achieve final concentrations of 50 μg/mL, followed by TNKS1 enzyme. After 1 hour, the plates were washed 3 times with PBS-Tween and incubated with primary antibody (1:800) for another hour. Following PBS-Tween wash, the secondary-HRP antibody was added (1:1000), incubated for 30 minutes, and finally chemiluminescent substrate was added. The plates were immediately measured for luminescence in the FLUOstar Optima plate reader (BMG Labtechnologies, GmbH, Inc.). The positive control included TNKS1 enzyme, NAD+, and DMSO; the substrate control included enzyme and DMSO; and the negative control included NAD+ and DMSO.297,304 The mace ethyl acetate fractions were screened for PARP-5 inhibition (Table 4).

PPAR-γ expression = assay: Larval diabetic zebrafish assay, Western blot of PPAR-γ; assay type: in vivo; conditions: diabetic zebrafish larvae, 10 μM
Procedure: Western blot analysis of zebrafish expression levels for glycated hemoglobin, metabolic enzymes, and molecular targets NFκB and PPAR-γ was performed to evaluate potential lead improvement and to discover possible mechanisms of action.
Wild-type zebrafish were sorted into 24-well microplates with 10 fish per well for a four-phase treatment cycle. At 72 hpf, type 2 diabetes was induced by administering 0.5 mg/mL alloxan in fish water for percutaneous absorption. […] At 78 hpf, the incubation solution was changed to 10 mg/ml D-glucose for 30 minutes, followed by a phase-four rinse in fresh system w Following the four-phase treatment cycle, zebrafish treatment groups were snap frozen in microcentrifuge tubes on dry ice, stored overnight at −80° C., thawed, and homogenized with 2 μL PBS per animal. Following centrifugation (60 minutes at 4° C. and 17,000 rpm), protein content of the homogenate supernatant was determined using the Pierce BCA Protein Assay kit (Pierce Biotechnology). Homogenates were analyzed by Western blot with equal amounts of total protein (20 μg) in each sample and using 4×LDS loading buffer (NuPAGE Life Technologies).
Electrophoresis was performed with NuPAGE MES SDS Running Buffer and using the XCell SureLock Mini-Cell Electrophoresis System (Life Technologies). Proteins separated on the gel were transferred to a PVDF membrane using TBST buffer. The blots were blocked in 3% BSA in TBST and subsequently probed overnight with primary antibodies (1:1000 in 1% BSA in TBST) against each target of interest. Following TBST rinses, secondary HRP-conjugated antibodies (1:2000) were applied to the membrane for 60 minutes. The HRP conjugated antibodies were detected using SuperSignal West Femto chemiluminescent substrate (Pierce Biotechnology) and immunoblot images were captured using the luminometer and Lumi Analyst 3.0 software.
Band densities were determined using ImageJ Gel Analysis to determine expression levels of each protein of interest. Expression levels of HbA1C, PPAR-γ, and NFκB were organized into a bar graphs (FIG. 5) with band densities calculated in comparison to the housekeeping gene β-actin, normalized to the untreated diabetic group (B) of zebrafish. […].

[2] = preliminary Western blot (FIG. 4/5)

## C/C=C/c1cc(OC)c2c(c1)[C@H](C)[C@@H](c1ccc3c(c1)OCO3)O2 [Compound 41, licarin B]
[1]
  PARP-5 inhibitory activity: not effective PARP-5 inhibitors
  PARP-5% inhibition: <50%
  inhibition at 50 µg/mL: < 50%
PPAR-γ expression; [2]
  PPAR-γ expression (band density): did not upregulate PPAR-γ expression

## C/C=C/c1cc(OC)c2c(c1)[C@H](C)[C@@H](c1ccc(O)c(OC)c1)O2 [Compound 42, licarin A]
[1]
  PARP-5 inhibitory activity: not effective PARP-5 inhibitors
  PARP-5% inhibition: <50%
  inhibition at 50 µg/mL: < 50%
PPAR-γ expression; duplicate Western blot (FIG. 8)
  PPAR-γ expression (band density): reliably intermediate between the rosiglitazone-treated and untreated diabetic groups
PPAR-γ expression; [2]
  PPAR-γ expression (band density): greater PPAR-γ expression that 41
